These results are taken from US20210188897A1, “NEUROACTIVE STEROIDS AND COMPOSITIONS AND METHODS THEREOF” (Sparx Therapeutics, Inc., priority 2019, published 2021).

SMILES strings stand for the structures. Where two headings read alike, the source gives them in different places.

For one data set, the target named is T1, α1β2γ2 GABAA receptors (Homo sapiens, UniProt P14867+P47870).
T1 construct: expressed in transfected cells; host or cells: 293T cells (ATCC-CRL-1573)
The experiment in a line: GABAAR modulator FLIPR assay (membrane potential), α1β2γ2. The class given is cell-based. How it is done:
(§1) 293T cells (ATCC-CRL-1573) were applied for transient expression of α1β2γ2 or α1β2δ GABAA receptors. Cells were plated in a 96 well plate with a confluence of about 70%-80% and cultured overnight in complete medium without antibiotics. The α1β2γ2 or α1β2δ subunits were transfected via the lipofectamine method. The FLIPR assay was developed to quantitatively assess the compounds' PAM activity in α1β2γ2 and α1β2δ GABAA receptors. The FLIPR assays were conducted 48 h post-transfection. The FLIPR reagents were purchased from Molecular Devices Corporation (Membrane potential red kit, Catalog number R8126). The FMP-Red-Dye was reconstituted to 1× assay buffer. Growth medium was removed from the wells and cells were loaded with 100 μL FMP-Red-Due solution for 30 minutes in the dark at r.t. After dye loading, each plate was transferred to the FLIPR Tetra Station: the dye was excited at 510-545 nm, and the fluorescence signals were recorded at 565-625 nm. Baseline recordings were acquired for 1 minute. FMP-Red-Dye is a slow-response, potential sensitive probe and the maximal response is usually seen within 2 minutes after triggering cellular depolarization or hyperpolarization. After baseline recording, the different doses of compound solutions were firstly added on cells and the fluorescent signals were recorded for 5 minutes. Then the cells were followed by a second addition with ligand GABA solution and recorded for another 3.5 minutes. Cell responses were calculated as ΔF=Fmax−Fmin, where Fmax was the maximum response in arbitrary fluorescence units, and Fmin was the baseline arbitrary fluorescence unit value.

The test system of data set [1] is 5XFAD and wild type mice. Kind of data set: Forced swim test. Format: in vivo. As to conditions: 9-month old 5XFAD and wild type mice, 20 mg/kg oral gavage, 45 minutes post dosing; FIG. 3. How it is done: 9-month old 5XFAD transgenic mice (expressing human APP and PSEN1 transgenes with 5 AD-linked mutations) and wild type litermates (C57/B16) were dosed as at 20 mg/kg via oral gavage. The cognitive and mood behavioral tests were performed 45 minutes post dosing.
The forced swim test is a test for depression-like behavior in rodents. The assay involves observing a mouse stay afloat in a tank of water and monitoring how much time it spends immobile.

Data set [2] concerns 5XFAD and wild type mice. Kind of data set: Open field test. Format: in vivo. Conditions: 9-month old 5XFAD and wild type mice, 20 mg/kg oral gavage, 45 minutes post dosing; FIG. 2. How it is done: 9-month old 5XFAD transgenic mice (expressing human APP and PSEN1 transgenes with 5 AD-linked mutations) and wild type litermates (C57/B16) were dosed as at 20 mg/kg via oral gavage. The total distance travelled was recorded in an open field chamber 45 minutes post dosing.

In a further data set the target is T2, α1β2δ GABAA receptors (Homo sapiens, UniProt P14867+P47870).
T2 construct: expressed in transfected cells; host or cells: 293T cells (ATCC-CRL-1573)
T2 sequence (P14867 28-456): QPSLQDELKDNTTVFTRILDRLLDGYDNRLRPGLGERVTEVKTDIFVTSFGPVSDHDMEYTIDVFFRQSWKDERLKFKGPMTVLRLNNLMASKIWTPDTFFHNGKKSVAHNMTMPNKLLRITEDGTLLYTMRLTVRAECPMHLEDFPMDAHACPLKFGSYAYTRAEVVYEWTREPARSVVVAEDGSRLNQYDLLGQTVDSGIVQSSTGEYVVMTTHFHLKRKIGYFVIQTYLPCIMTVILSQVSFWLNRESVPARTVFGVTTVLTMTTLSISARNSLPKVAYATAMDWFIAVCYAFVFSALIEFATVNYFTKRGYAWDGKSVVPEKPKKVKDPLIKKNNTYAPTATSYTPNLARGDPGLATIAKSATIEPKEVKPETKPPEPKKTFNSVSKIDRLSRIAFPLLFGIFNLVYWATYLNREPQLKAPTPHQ
T2 sequence (P47870 25-512 limits assumed): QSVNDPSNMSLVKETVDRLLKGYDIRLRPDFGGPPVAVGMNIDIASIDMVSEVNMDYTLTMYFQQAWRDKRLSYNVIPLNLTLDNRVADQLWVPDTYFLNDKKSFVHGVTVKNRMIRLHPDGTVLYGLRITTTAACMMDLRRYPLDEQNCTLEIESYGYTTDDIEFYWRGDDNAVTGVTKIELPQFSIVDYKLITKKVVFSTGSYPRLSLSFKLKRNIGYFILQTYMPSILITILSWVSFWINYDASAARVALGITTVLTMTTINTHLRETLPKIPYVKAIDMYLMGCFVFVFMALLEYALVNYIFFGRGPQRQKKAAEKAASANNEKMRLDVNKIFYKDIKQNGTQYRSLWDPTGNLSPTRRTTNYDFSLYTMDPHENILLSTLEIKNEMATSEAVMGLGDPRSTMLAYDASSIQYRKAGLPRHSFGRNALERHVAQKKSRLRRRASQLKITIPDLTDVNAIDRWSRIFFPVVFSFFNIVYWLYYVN
T2 sequence (O14764 17-452 partner limits assumed): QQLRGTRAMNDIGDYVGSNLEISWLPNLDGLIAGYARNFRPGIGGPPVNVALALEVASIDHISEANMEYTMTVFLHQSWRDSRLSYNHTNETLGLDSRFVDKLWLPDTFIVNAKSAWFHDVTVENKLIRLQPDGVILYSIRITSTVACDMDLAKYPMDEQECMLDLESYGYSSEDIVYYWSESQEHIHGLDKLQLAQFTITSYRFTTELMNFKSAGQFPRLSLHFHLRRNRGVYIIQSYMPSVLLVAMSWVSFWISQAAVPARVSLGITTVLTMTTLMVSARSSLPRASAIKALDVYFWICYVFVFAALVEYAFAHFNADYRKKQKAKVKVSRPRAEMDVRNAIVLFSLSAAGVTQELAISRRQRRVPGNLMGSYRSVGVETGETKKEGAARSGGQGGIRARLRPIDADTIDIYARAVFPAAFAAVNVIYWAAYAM
The experiment in a line: GABAAR modulator FLIPR assay (membrane potential), α1β2δ. The class given is cell-based. How it is done: as §1

Setting [3] is: 293T cells transiently expressing α1β2γ2 GABAA receptors, FLIPR, PAM activity, read-out: EC50 in α1β2γ2/293T.
Where [4] appears, read: 293T cells transiently expressing α1β2δ GABAA receptors, FLIPR, PAM activity, read-out: EC50 in α1β2δ/293T.

T1 sequence (P18507 40-475 partner, one chain of several): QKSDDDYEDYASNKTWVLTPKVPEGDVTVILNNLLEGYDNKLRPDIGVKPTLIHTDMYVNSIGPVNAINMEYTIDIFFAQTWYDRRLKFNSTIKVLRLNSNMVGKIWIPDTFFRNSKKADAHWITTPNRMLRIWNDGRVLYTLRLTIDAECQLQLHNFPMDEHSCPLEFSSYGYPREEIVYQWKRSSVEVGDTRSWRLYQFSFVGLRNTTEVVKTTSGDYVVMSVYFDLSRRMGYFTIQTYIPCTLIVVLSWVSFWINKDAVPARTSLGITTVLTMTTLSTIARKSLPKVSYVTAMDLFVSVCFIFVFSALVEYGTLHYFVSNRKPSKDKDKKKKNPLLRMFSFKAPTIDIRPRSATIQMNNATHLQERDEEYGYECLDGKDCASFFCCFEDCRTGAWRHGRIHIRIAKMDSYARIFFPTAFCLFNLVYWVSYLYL

Consider `C[C@@]1(O)CC[C@H]2[C@H](CC[C@@H]3[C@@H]2CC(F)(F)[C@]2(C)[C@@H](C(=O)Cn4ccc(C#N)n4)CC[C@@H]32)C1` [Example 8, 1-(2-((3R,5R,8R,9R,10S,13S,14S,17S)-12,12-difluoro-3-hydroxy-3,13-dimethylhexadecahydro-1H-cyclopenta[a]phenanthren-17-yl)-2-oxoethyl)-1H-pyrazole-3-carbonitrile], for which the EC50 on α1β2γ2 GABAA receptors (setting [3]) came to 0.63 µM; on α1β2δ GABAA receptors (setting [4]) it was 0.25 µM. Moreover, the “efficacy in forced swim test (time immobile, depression-like behavior)” value in the data set with 5XFAD and wild type mice [1] is reported as “genotype-specific efficacy”. The “locomotor functions (total distance travelled in open field chamber)” value in the data set with 5XFAD and wild type mice [2] is “no interference of the locomotor functions”.

On to `CC(=O)[C@H]1CC[C@H]2[C@@H]3CC[C@@H]4C[C@](C)(O)CC[C@@H]4[C@H]3CC(F)(F)[C@]12C` [Example 5, 1-((3R,5R,8R,9R,10S,13S,14S,17S)-12,12-difluoro-3-hydroxy-3,13-dimethylhexadecahydro-1H-cyclopenta[a]phenanthren-17-yl)ethan-1-one], for which the values for the EC50 at α1β2γ2 GABAA receptors (setting [3]) and on α1β2δ GABAA receptors (setting [4]) were 0.39 µM and 0.19 µM, respectively.

Regarding `C[C@@]1(O)CC[C@H]2[C@H](CC[C@@H]3[C@@H]2CC(F)(F)[C@]2(C)[C@@H](C(=O)Cn4cc(C#N)cn4)CC[C@@H]32)C1` [Example 6, 1-(2-((3R,5R,8R,9R,10S,13S,14S,17S)-12,12-difluoro-3-hydroxy-3,13-dimethylhexadecahydro-1H-cyclopenta[a]phenanthren-17-yl)-2-oxoethyl)-1H-pyrazole-4-carbonitrile], the EC50 turned out to be 0.47 µM on α1β2γ2 GABAA receptors (setting [3]) and 0.12 µM on α1β2δ GABAA receptors (setting [4]).

Consider `C[C@@]1(O)CC[C@H]2[C@H](CC[C@@H]3[C@@H]2CC(F)(F)[C@]2(C)[C@@H](C#N)CC[C@@H]32)C1` [Example 4, (3R,5R,8R,9R,10S,13S,14S,17S)-12,12-difluoro-3-hydroxy-3,13-dimethylhexadecahydro-1H-cyclopenta[a]phenanthrene-17-carbonitrile], for which the results for the EC50 at α1β2γ2 GABAA receptors (setting [3]) and on α1β2δ GABAA receptors (setting [4]) were 2.95 µM and 0.71 µM, respectively.

As to `C=C1C[C@H]2[C@@H](CC[C@@H]3C[C@](C)(O)CC[C@@H]32)[C@@H]2CC[C@H](C(C)=O)[C@@]12C` [Example 2, 1-((3R,5R,8R,9R,10S,13S,14S,17S)-3-hydroxy-3,13-dimethyl-12-methylenehexadecahydro-1H-cyclopenta[a]phenanthren-17-yl)ethan-1-one], the EC50 is 0.28 µM on α1β2γ2 GABAA receptors (setting [3]) and 0.098 µM at α1β2δ GABAA receptors (setting [4]).

`C=C1C[C@H]2[C@@H](CC[C@@H]3C[C@](C)(O)CC[C@@H]32)[C@@H]2CC[C@H](C#N)[C@@]12C` [Example 1, (3R,5R,8R,9R,10S,13S,14S,17S)-3-hydroxy-3,13-dimethyl-12-methylenehexadecahydro-1H-cyclopenta[a]phenanthrene-17-carbonitrile]: the EC50 is 0.27 µM at α1β2γ2 GABAA receptors and 0.081 µM at α1β2δ GABAA receptors.

As to `C[C@@]1(O)CC[C@H]2[C@H](CC[C@@H]3[C@@H]2CC(F)(F)[C@]2(C)[C@@H](C(=O)Cn4cc(F)cn4)CC[C@@H]32)C1` [Example 7, 1-((3R,5R,8R,9R,10S,13S,14S,17S)-12,12-difluoro-3-hydroxy-3,13-dimethylhexadecahydro-1H-cyclopenta[a]phenanthren-17-yl)-2-(4-fluoro-1H-pyrazol-1-yl)ethan-1-one], the EC50 is 0.74 µM on α1β2γ2 GABAA receptors (setting [3]) and 0.39 µM on α1β2δ GABAA receptors (setting [4]).
